The text below walks through data of patent US8937050B2, “Methods and compositions for treatment of autism” (The Johns Hopkins University, priority 2011, dated 2015).

Test [1] relates to sickle cell disease (SCD). The following applies: cited from earlier work.
The next test relates to APG8 (LC3). As to conditions: normal human fibroblasts, 4 hrs.-24 hrs.; FIG. 5B. The method, then:
Cell lysates were collected in mammalian protein extraction reagent (m-PER; Thermo Scientific, Rockford, Ill.) plus 1×protease inhibitor (Sigma-Aldrich) and 1×Halt phosphatase inhibitor (Thermo Scientific). Denatured SDS-PAGE and immunoblot analyses were performed using the following antibodies: phosphorylated JNK and β-actin from Santa Cruz Biotechnology, HSP70, HSP90, BIP, phosphorylated eIF2α, and XBP1 from Cell Signaling, APG8 (Abgent, San Diego, Calif.), and SOD2 (Stressgen, Ann Arbor, Mich.). Quantitation was performed using a Fuji Intelligent Dark box II, FUJI LAS-1000 Lite software and Image Gauge v4.22 software (Tokyo, Japan).
Actin (43 kDa) was used as a loading control. UT denotes untreated cells.

Another test concerns liver of mice. As to conditions: 3- and 12-hours after single dose 90 mg/kg by gavage, Hu et al., 2005; cited from earlier work.
A further test concerns HSF1. The following applies: luciferase reporter system; cited from earlier work.
The test system of another test is ABCD2. The following applies: Li et al., 2002; cited from earlier work.

Consider `NC(=O)NO` [HU, hydroxyurea], for which the “cognitive function in children with SCD” value in test [1] (Puffer et al., 2007) is given as “improve cognitive function”. Further, the incidence of strokes result in test [1] (SCD) was “decreases”.
Take `C[S@@+]([O-])CCCCN=C=S` [SFN, 1-isothiocyanato-4R-(methylsulfinyl)butane]: in the test on APG8 (LC3), the “proportion of LC3-II to LC3-I” value is reported as “significantly increased”. In addition, in the test on liver of mice, the “Heat shock proteins and ubiquitin/26 S proteasome subunits in liver” value is listed as “induced”. For the same compound, the “HSF1 mediated transcription of the reporter” value with HSF1 is listed as “activated”.
4-phenylbutyrate [4PBA]: the “expression of ABCD2” value with ABCD2 is “increased”.
